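Following 48 hours of exposure in 96-well plates, responses at five concentrations were used to interpolate endpoints linearly. GI50 = concentration required for 50% inhibition of growth. The concentration for full growth arrest is given as TGI.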
Assays:
Experiment in all cases: NCI tumour cell line growth inhibition, 48 h
A549 NSCLC = system: A549 NSCLC
HOP-92 NSCLC = system: HOP-92 NSCLC
M14 melanoma = system: M14 melanoma
SF-295 CNS = system: SF-295 CNS
SK-MEL-28 melanoma = system: SK-MEL-28 melanoma
SN12C renal = system: SN12C renal
OVCAR-5 ovarian = system: OVCAR-5 ovarian
SK-MEL-2 melanoma = system: SK-MEL-2 melanoma
UACC-257 melanoma = system: UACC-257 melanoma
MCF7 breast = system: MCF7 breast

Compound	TGI (A549 NSCLC) [µM]	TGI (HOP-92 NSCLC) [µM]	TGI (M14 melanoma) [µM]	TGI (SF-295 CNS) [µM]	TGI (SK-MEL-28 melanoma) [µM]	TGI (SN12C renal) [µM]	TGI (OVCAR-5 ovarian) [µM]	TGI (SK-MEL-2 melanoma) [µM]	TGI (UACC-257 melanoma) [µM]	GI50 (A549 NSCLC) [µM]	GI50 (M14 melanoma) [µM]	GI50 (MCF7 breast) [µM]	GI50 (OVCAR-5 ovarian) [µM]	GI50 (SF-295 CNS) [µM]	GI50 (SK-MEL-2 melanoma) [µM]	GI50 (SK-MEL-28 melanoma) [µM]	GI50 (SN12C renal) [µM]	GI50 (UACC-257 melanoma) [µM]	GI50 (HOP-92 NSCLC) [µM]	TGI (MCF7 breast) [µM]
C/C(=N\NC(N)=S)c1ccc(Oc2ccccc2)cc1	74.4	9.48	25.8	38.4	33.2	38.4														
CC[C@H]1CNC(=O)CC1CC(=O)OC (some centres undefined)	> 100		> 100	> 100	> 100	> 100	> 100	> 100	> 100											
O=c1[nH]c2c(ccc3cnccc32)c2c1CCC2	> 53.5		1.62	> 100	0.84	> 100	> 100	0.673	0.833	0.5	0.35	0.317	0.461	0.362	0.221	0.306	0.365	0.245		
COc1ccc(-c2cc(-c3ccc(Cl)cc3)c(C#N)c(=O)n2CCCCCC(=O)Nc2ccccc2N)cc1	> 100	9.93	6.57		97.8	> 100	> 100	33.1		4.06	2.44	3.25	10.9		4.68	3.88	7.66		1.96	> 100
Cc1ccccc1C1N=C2Oc3ccccc3C=C2C(=O)N1 (centres undefined)	> 100		7.66	> 25.9	> 100	> 100	> 100	> 100	> 100	3.55	0.826	0.793	2.51	1.46	0.535	4.57	8.33	> 100		> 100
O=P(c1ccccc1)(c1ccccc1)C1CC=C2CCCCCC2C1 (centres undefined)	> 10	39.9	40.9	> 100	> 10	> 100	62.2	81.6	68.5											
COc1cc(C(=O)N[C@@H]2CCCN(C)C2)ccc1Nc1ncc2c(n1)N(C1CCCC1)CC(C)(C)C(=O)N2C	5.18		0.769	3.56	2.04	16.6	17.5		2.63	0.0549	0.0494	0.0278	0.0608	0.109		0.153	0.347	0.285		11.6
Cc1nn(-c2ccccc2)c2c1[C@@H](C)[C@H]1CC3(CC4(C)C[C@@H]3C1(C)c1c(C)nn(-c3ccccc3)c1N4C)N2C (some centres undefined)		8.68			> 100	> 100	> 100	> 100				3.46	> 100		> 100	31.4	> 100		0.792	> 100
O=C(c1ccccc1)N1CCc2c([nH]c3ccccc23)C1	> 100	> 100	> 100	> 100	> 100	> 100	> 100	71.2	95											
O=C1N(c2ccccc2)C2(O)C(=O)c3ccccc3C2(O)N1c1ccccc1 (centres undefined)	> 100		> 100	> 100	> 100	> 100	> 100	> 100	> 100											
COc1cc(Br)c(C2OCCCO2)cc1OCc1ccccc1	> 100	64.3	> 100	> 100	> 100	> 100	> 100	> 100												
CCOc1ccc(/C=C/C(=O)c2sc(NNC(C)=O)nc2C)cc1	> 100	> 100		> 100	> 100	> 100	> 100	> 100	> 100											
CC(C)CC(=O)O[C@H]1C(=O)O[C@@H]2C[C@H]3[C@H](C)C(=O)C(O[C@@H]4O[C@H](CO)[C@@H](O)[C@H](O)[C@H]4O)=C[C@]3(C)[C@H]3[C@@H](O)[C@H](O)[C@]4(C(=O)O)OC[C@]32[C@@H]14	> 100	> 100	> 100		> 100	> 100	> 100		> 100	42.1		28				25.2	> 100	> 100	37	> 100
N#CCC1CCN(c2nc(Nc3ccc(N4CCC(O)CC4)cc3)c3c(=O)[nH]ncc3n2)CC1	> 100	> 100	> 100	> 100	> 100	> 100	> 100		> 100	0.455	0.402	0.297	1.22	1.44		1.2	0.391	> 100	0.239	> 100
O=C(CC1(O)C(=O)Nc2ccc(Br)cc21)c1cccc([N+](=O)[O-])c1 (centres undefined)	> 100	74.6	> 100	> 100	> 100	> 100	> 100	> 100	78.6											
CCc1cccc(CC)c1NC1=CC(=O)C(=O)c2ccccc21	37.8	29.6	27.2	28.3	37.4	76.5	31	35.9	28.6											
COc1ccc2c(c1)c(-c1nc(-c3cn(C)c4ncccc34)cs1)cn2CCCCN1CCCCC1	3.21	2.76			3.16		3.08			1.74			1.65			1.74			1.38	
Fc1cnccc1-c1nc2ccc3[nH]ncc3c2c2c1CCCC2	> 100	9.97	> 100	> 100		> 100	> 100		> 100	1.25	1.58	1.93	3.16	2.53			2.14	5.48	1.62	12.1

From PubChem BioAssay (NCI)
